From patent publication US9650395B2, “Antibacterial compounds and methods for use” (PTC Therapeutics, Inc., priority 2011, dated 2017)
Where a name gives a salt, the structure may show the parent alone. Read-outs that look alike come from different tables or passages of the source.

Assays:
[1] = test system: super sensitive Gram-negative Escherichia coli (E. coli) BAS849; experiment: Antibacterial activity, microbroth dilution MIC, E. coli BAS849; assay type: cell-based; details: Escherichia coli, read-out: MIC, BAS849
[2] = test system: control Gram-negative E. coli 25922 strain; experiment: Antibacterial activity, microbroth dilution MIC, E. coli 25922; assay type: cell-based, Escherichia coli; details: Escherichia coli; E. coli 25922, microbroth dilution; read-out: MIC, 25922
[3] = test system: Gram-positive Staphylococcus aureus (S. aureus) 29213; experiment: Antibacterial activity, microbroth dilution MIC, S. aureus 29213; assay type: cell-based; details: Staphylococcus aureus; S. aureus 29213, microbroth dilution; read-out: MIC, 29213
[4] = test system: quinolone resistant E. coli LZ3111; experiment: Antibacterial activity, MIC, quinolone resistant E. coli LZ3111; assay type: cell-based, Escherichia coli; details: Escherichia coli, read-out: MIC, LZ3111
From the text: (§1) The antibacterial activity from a microbroth dilution method may be presented as the minimum inhibitory concentration (MIC in […]). The MIC value is the lowest concentration of a drug which prevents macroscopically visible bacterial growth under test conditions.
Mutations in these regions are known to confer a high level resistance to the quinolone class of antibiotics.

[5] = test system: E. coli ELZ4000 (MDR clinical isolate); experiment: Antibacterial activity, MIC, MDR E. coli ELZ4000; assay type: cell-based, Escherichia coli; details: Escherichia coli; E. coli ELZ4000, MDR clinical isolate; read-out: MIC ELZ4000
[6] = test system: E. coli ELZ4251 (MDR clinical isolate); experiment: Antibacterial activity, MIC, MDR E. coli ELZ4251; assay type: cell-based, Escherichia coli; details: Escherichia coli, E. coli ELZ4251, MDR clinical isolate; read-out: MIC ELZ4251
[7] = test system: Acinetobacter baumannii (A. baumannii) BAA747; experiment: Antibacterial activity, MIC, A. baumannii BAA747; assay type: cell-based; details: Acinetobacter baumannii; A. baumannii BAA747; read-out: MIC BAA747
[8] = test system: Klebsiella pneumoniae (K. pneumoniae) 35657; experiment: Antibacterial activity, MIC, K. pneumoniae 35657; assay type: cell-based; details: Klebsiella pneumoniae
[9] = test system: resistant A. baumannii MXX2240 (MDR clinical isolate); experiment: Antibacterial activity, MIC, resistant A. baumannii MXX2240; assay type: cell-based, Acinetobacter baumannii; details: Acinetobacter baumannii, resistant A. baumannii MMX2240, MDR clinical isolate; read-out: MIC MMX2240
[10] = test system: resistant K. pneumoniae MXX1232 (MDR clinical isolate); experiment: Antibacterial activity, MIC, resistant K. pneumoniae MXX1232; assay type: cell-based, Klebsiella pneumoniae; details: Klebsiella pneumoniae; resistant K. pneumoniae MMX1232, MDR clinical isolate; read-out: MIC MMX1232
[11] = test system: Pseudomonas aeruginosa (P. aeruginosa) 27853; experiment: Antibacterial activity, MIC, P. aeruginosa 27853; assay type: cell-based; details: Pseudomonas aeruginosa, P. aeruginosa 27853; read-out: MIC 27853
From the text: as §1
Antibacterial activity of test compounds against the Gram-negative bacterium Pseudomonas aeruginosa (P. aeruginosa) 27853 is shown in Table 5.

[12] = test system: Haemophilus influenzae (H. influenzae) 49247; experiment: Antibacterial activity, MIC, H. influenzae 49247; assay type: cell-based; details: Haemophilus influenzae; H. influenzae 49247; read-out: MIC 49247
In short: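 Antibacterial activity against the Gram-negative organism Haemophilus influenzae strain 49247 was measured by microbroth dilution. The minimum inhibitory concentration (MIC) was taken as the lowest drug concentration that stopped bacterial growth from being visible to the naked eye under the test conditions.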

[13] = test system: Moraxella catarrhalis (M. catarrhalis) 25238; experiment: Antibacterial activity, MIC, M. catarrhalis 25238; assay type: cell-based; details: Moraxella catarrhalis, M. catarrhalis 25238; read-out: MIC 25238
[14] = test system: Neisseria meningitidis (N. meningitidis) 13090; experiment: Antibacterial activity, MIC, N. meningitidis 13090; assay type: cell-based; details: Neisseria meningitidis; N. meningitidis 13090; read-out: MIC 13090
[15] = E. coli BAS849, microbroth dilution

Row | Compound | MIC [1, 15] [µg/mL] | MIC [2] [µg/mL] | MIC [3] [µg/mL] | MIC [4] [µg/mL] | MIC [5] [µg/mL] | MIC [6] [µg/mL] | MIC [7] [µg/mL] | MIC [8] [µg/mL] | MIC [9] [µg/mL] | MIC [10] [µg/mL] | MIC [11] [µg/mL] | MIC [12] [µg/mL] | MIC [13] [µg/mL] | MIC [14] [µg/mL] | MIC [1] [µg/mL]
1 | CCc1c(-c2ccc(N3C[C@H]4CC[C@@H](N)[C@H]4C3)cc2)[nH]c(=O)c(C(=O)O)c1O.Cl [Cpd 264, 6-{4-[(3aR,4R,6aS)-4-aminohexahydrocyclopenta[c]pyrrol-2(1H)-yl]phenyl}-5-ethyl-4-hydroxy-2-oxo-1,2-dihydropyridine-3-carboxylic acid hydrochloride] | < 1 | 1 to 3.5 | 3.5 to 12.5 | 1 to 3.5 | 12.5 to 150 | 3.5 to 12.5 | 12.5 to 150 | 3.5 to 12.5 | 12.5 to 150 | 12.5 to 150 | 12.5 to 150 | 3.5 to 12.5 | 1 to 3.5 | < 1 | –
2 | CCc1c(-c2ccc(N3C[C@H]4CC[C@H](N)[C@H]4C3)cc2)[nH]c(=O)c(C(=O)O)c1O.O=C(O)C(F)(F)F [Cpd 265, 6-{4-[(3aR,4S,6aS)-4-aminohexahydrocyclopenta[c]pyrrol-2(1H)-yl]phenyl}-5-ethyl-4-hydroxy-2-oxo-1,2-dihydropyridine-3-carboxylic acid trifluoroacetate] | – | 3.5 to 12.5 | 12.5 to 150 | 3.5 to 12.5 | 12.5 to 150 | 3.5 to 12.5 | 12.5 to 150 | 3.5 to 12.5 | 12.5 to 150 | 12.5 to 150 | 12.5 to 150 | 12.5 to 150 | 3.5 to 12.5 | 1 to 3.5 | 1 to 3.5
3 | CCc1c(-c2ccc(N3C[C@H]4CCC[C@H](NC)[C@H]4C3)cc2)[nH]c(=O)c(C(=O)O)c1O.Cl [Cpd 268, 5-ethyl-4-hydroxy-6-{4-[(3aR,4S,7aS)-4-(methylamino)octahydro-2H-isoindol-2-yl]phenyl}-2-oxo-1,2-dihydropyridine-3-carboxylic acid hydrochloride] | 1 to 3.5 | 3.5 to 12.5 | 3.5 to 12.5 | 1 to 3.5 | 12.5 to 150 | 3.5 to 12.5 | 12.5 to 150 | 12.5 to 150 | 12.5 to 150 | 12.5 to 150 | 12.5 to 150 | 12.5 to 150 | 3.5 to 12.5 | 3.5 to 12.5 | –
4 | CCc1c(-c2ccc(N3C[C@@H]4[C@H](C3)[C@H]4NC)cc2)[nH]c(=O)c(C(=O)O)c1O [Cpd 270, 5-ethyl-4-hydroxy-6-{4-[(1R,5S,6s)-6-(methylamino)-3-azabicyclo[3.1.0]hex-3-yl]phenyl}-2-oxo-1,2-dihydropyridine-3-carboxylic acid hydrochloride] | < 1 | < 1 | 3.5 to 12.5 | 1 to 3.5 | 12.5 to 150 | 3.5 to 12.5 | < 1 | < 1 | 12.5 to 150 | 12.5 to 150 | 1 to 3.5 | < 1 | < 1 | < 1 | –
5 | CCc1c(-c2ccc(N3CC4CCCNC4C3)cc2)[nH]c(=O)c(C(=O)O)c1O.Cl (stereo not drawn) [Cpd 272, 5-ethyl-4-hydroxy-6-[4-(octahydro-6H-pyrrolo[3,4-b]pyridin-6-yl)phenyl]-2-oxo-1,2-dihydropyridine-3-carboxylic acid hydrochloride] | < 1 | < 1 | 3.5 to 12.5 | < 1 | 3.5 to 12.5 | 1 to 3.5 | 1 to 3.5 | < 1 | 3.5 to 12.5 | 12.5 to 150 | 3.5 to 12.5 | < 1 | < 1 | < 1 | –
6 | CCc1c(-c2ccc(N3CCC(N(C)C)C3)cc2)[nH]c(=O)c(C(=O)O)c1O.Cl (stereo not drawn) [Cpd 275, 6-{4-[3-(dimethylamino)pyrrolidin-1-yl]phenyl}-5-ethyl-4-hydroxy-2-oxo-1,2-dihydropyridine-3-carboxylic acid hydrochloride] | < 1 | < 1 | 12.5 to 150 | 1 to 3.5 | 3.5 to 12.5 | 1 to 3.5 | 1 to 3.5 | 1 to 3.5 | 1 to 3.5 | 12.5 to 150 | 3.5 to 12.5 | < 1 | < 1 | < 1 | –
7 | CCc1c(-c2ccc(N3CC4CC4(N)C3)cc2)[nH]c(=O)c(C(=O)O)c1O.Cl (stereo not drawn) [Cpd 277, 6-[4-(1-amino-3-azabicyclo[3.1.0]hex-3-yl)phenyl]-5-ethyl-4-hydroxy-2-oxo-1,2-dihydropyridine-3-carboxylic acid hydrochloride] | < 1 | 1 to 3.5 | 3.5 to 12.5 | 3.5 to 12.5 | 12.5 to 150 | 12.5 to 150 | 3.5 to 12.5 | 1 to 3.5 | 12.5 to 150 | 12.5 to 150 | 12.5 to 150 | 1 to 3.5 | 1 to 3.5 | < 1 | –
8 | CCc1c(-c2ccc(N3CCC(C(C)(C)N)C3)cc2)[nH]c(=O)c(C(=O)O)c1O.Cl (stereo not drawn) [Cpd 279, 6-{4-[3-(2-aminopropan-2-yl)pyrrolidin-1-yl]phenyl}-5-ethyl-4-hydroxy-2-oxo-1,2-dihydropyridine-3-carboxylic acid hydrochloride] | < 1 | 1 to 3.5 | 12.5 to 150 | < 1 | 3.5 to 12.5 | 1 to 3.5 | 12.5 to 150 | 3.5 to 12.5 | 3.5 to 12.5 | 12.5 to 150 | 12.5 to 150 | 3.5 to 12.5 | 3.5 to 12.5 | 12.5 to 150 | –
9 | CCc1c(-c2ccc(N3C[C@H]4CCC[C@@H](NC)[C@H]4C3)cc2)[nH]c(=O)c(C(=O)O)c1O.Cl [Cpd 296, 5-ethyl-4-hydroxy-6-{4-[(3aR,4R,7aS)-4-(methylamino)octahydro-2H-isoindol-2-yl]phenyl}-2-oxo-1,2-dihydropyridine-3-carboxylic acid hydrochloride] | < 1 | 1 to 3.5 | 1 to 3.5 | < 1 | 12.5 to 150 | 3.5 to 12.5 | 12.5 to 150 | 1 to 3.5 | 3.5 to 12.5 | 12.5 to 150 | 12.5 to 150 | 3.5 to 12.5 | 3.5 to 12.5 | < 1 | –
